In brackets after ≈: the same amount, converted by molar mass.
What was measured:
[1] = tested on: S. Aureus strain 1 (collection) mec a+; experiment: MIC/MBC broth-dilution (micromethod), CLSI; assay type: cell-based; settings: Staphylococcus aureus; for MBC: kills 99,9% of initial population
Description: (§1) Determination of Minimal Inhibitory Concentration (MIC), Minimal Bactericidal Concentration (MBC), bactericidal curves and killing rate on Gram positive and Gram negative bacteria strains, for the evaluation of the bactericidal activity of compounds of example 1 (n. 1 to 14).
(§2) In details, phenotypic methods based on in vitro MIC and MBC determination have been performed on previously isolated bacterial strains, identified and characterized at the level of their antibiotic susceptibility profile. According to MIC and MBC data, the Killing Rate was calculated as the ratio between MBC and MIC on which basis it is possible to define the compounds tested as bactericides (killing rate=1-4), or bacteriostatic (killing rate >4).
(§3) Preparation of the solution containing molecules: for each molecule to be tested, solutions were made as DMSO Stock, with a concentration of 2.560 mg/ml, used to test 12 dilutions with the following scalar drug concentrations: 512-256-128-64-32-16-8-4-2-1-0.5-0.25 μg/ml. The scalar dilutions were prepared directly on plates by using Mueller Hinton Broth (MHB) as a solvent.
Bacterial suspension preparation: cryostrains preserved at −80° C. were recovered by incubation in growth medium (Brain Heart Infusion Broth, BHI) for 24-48 hours at 37° C. followed by passages in agar growth medium (Columbia Blood Agar). Colonies with less than 30 hours are suspended in MHB with the purpose to prepare a bacterial suspension with a turbidity of 0.5 MF, containing approximately 1.5×10^8 cfu/ml. This injection is additionally diluted in MHB until reaching a final concentration of 5×10^5 cfu/ml (range 3-7×10^5 cfu/ml). Identical volumes of this bacterial suspension are added on a plate, for each well containing drug scalar dilutions, to obtain a final concentration between 512 a 0.25 μg/ml. The set up of bacterial suspensions as well as the passage on slate has always been performed within 30 minutes, in order not to alter the concentration of the bacterial suspension. Simultaneously, check in broth-microdilution only with solvent (in order to exclude that the effect of growth inhibition might be due to the drug solution solvent), positive growth control in absence of DMSO and drug, and negative purity control only with injection broth are performed. As a consequence the slate is incubated at 37° C. for 24 and 48 hours in aerobes. […] The same observations are valid to evaluate 48 hours MIC. After the incubation, an equal volume of bacterial suspension from each well is plated on agar growth medium and incubated for 24-48 hours at a temperature of 37° C. in aerobes, in order to define the MBC after the incubation.
Bacterial strains: the bactericidal and/or bacteriostatic power of the synthesized compounds can be determined by using standard reference strains such as: • 1. S. Aureus ATCC 25923 res kan, tob, res streptogramine (sga-sgb, efflux), res mupirocina (at low level), res trimetoprim; • 2. S. Aureus strain 1 (collection) mec a+, res kan tob gen, res quinolones, lincosamides, res streptogramine (sga-sgb), mlsb+sa constituent, mlsb constituent, res mupirocine (low level), res trimetoprim; • 3. S. Aureus strain 2 (collection) acquired penicillinase, res kan tob, res streptogramine (sga-sgb, efflux), res mupirocine (low level), res trimetoprim; • 4. Enterococcus faecalis ATCC 51299 (str+gen res at high level, mlsb res, simil van b res); • 5. Enterococcus faecalis strain 1 (collection) (str+kan res at high level str res at high level tetracycline res); • 6. Enterococcus faecalis strain 2 (collection) (kan res at high level); • 7. E. coli of Collection: RESISTANT to ampicilline, amox+ac clav, ampicillinr+sulbactam, cefalexine, cefuroxime, cefuroxime axetil, cefixime, cefpodoxime, cefotaxime, ceftazidime, ceftriaxone, netilmicine, tobramicine, ciprofloxcine, trim/sulfametox, esbl pos, SENSITIVE to meropenem and gentamicine, INTERMEDIATE to amikacine; • 8. 8.

[2] = tested on: Enterococcus faecalis strain 2 (collection); experiment: MIC/MBC broth-dilution (micromethod), CLSI; assay type: cell-based; settings: for MBC: E. FAECALIS strain 2, kills 99,9% of initial population
Description: as §1
as §2, with “Sensitivity tests have been performed in broth-dilution (micromethod) with the purpose to test the possible bacteriostatic and/or bactericidal power in different compounds, in accordance with CLSI guidelines (Clinical and Laboratory Standards Institute). In” for “In”
as §3
Bacterial suspension preparation: cryostrains preserved at −80° C. were recovered by incubation in growth medium (Brain Heart Infusion Broth, BHI) for 24-48 hours at 37° C. followed by passages in agar growth medium (Columbia Blood Agar). Colonies with less than 30 hours are suspended in MHB with the purpose to prepare a bacterial suspension with a turbidity of 0.5 MF, containing approximately 1.5×10^8 cfu/ml. This injection is additionally diluted in MHB until reaching a final concentration of 5×10^5 cfu/ml (range 3-7×10^5 cfu/ml). Identical volumes of this bacterial suspension are added on a plate, for each well containing drug scalar dilutions, to obtain a final concentration between 512 a 0.25 μg/ml. The set up of bacterial suspensions as well as the passage on slate has always been performed within 30 minutes, in order not to alter the concentration of the bacterial suspension. Simultaneously, check in broth-microdilution only with solvent (in order to exclude that the effect of growth inhibition might be due to the drug solution solvent), positive growth control in absence of DMSO and drug, and negative purity control only with injection broth are performed. As a consequence the slate is incubated at 37° C. for 24 and 48 hours in aerobes. The 24 hours MIC is considered as the minimum drug concentration able to inhibit bacterial growth, which makes it possible to observe the absence of bacterial growth and the absence of turbidity. The same observations are valid to evaluate 48 hours MIC. After the incubation, an equal volume of bacterial suspension from each well is plated on agar growth medium and incubated for 24-48 hours at a temperature of 37° C. in aerobes, in order to define the MBC after the incubation. The MBC is evaluated as the minimum concentration of drug able to kill the 99,9% of the initial bacterial population.
Bacterial strains: the bactericidal and/or bacteriostatic power of the synthesized compounds can be determined by using standard reference strains such as: • 1. S. Aureus ATCC 25923 res kan, tob, res streptogramine (sga-sgb, efflux), res mupirocina (at low level), res trimetoprim; • 2. S. Aureus strain 1 (collection) mec a+, res kan tob gen, res quinolones, lincosamides, res streptogramine (sga-sgb), mlsb+sa constituent, mlsb constituent, res mupirocine (low level), res trimetoprim; • 3. S. Aureus strain 2 (collection) acquired penicillinase, res kan tob, res streptogramine (sga-sgb, efflux), res mupirocine (low level), res trimetoprim; • 4. Enterococcus faecalis ATCC 51299 (str+gen res at high level, mlsb res, simil van b res); • 5. […]

[3] = marked *: MIC value read at 48 hours
[4] = E. FAECALIS strain 2, values without asterisk
[5] = E. FAECALIS strain 2, marked *: MIC value read at 48 hours

| MIC [1, 3] [µg/mL] | MIC [2, 4] [µg/mL] | MIC ([1]; values without asterisk) [µg/mL] | MIC [2, 5] [µg/mL] | melting point [°C] | Compound | MBC [1] [µg/mL] | MBC [2] [µg/mL] |
| --- | --- | --- | --- | --- | --- | --- | --- |
| 64 to 128 | 32 | – | – | – | N#C/C=C/c1ccc(-c2ccc(O)c(C34CC5CC(CC(C5)C3)C4)c2)cc1 (mixture of isomers) [Compound 1] | 128 | 128 |
| – | 0.5 (≈ 1.39 µM) | 0.5 (≈ 1.39 µM) | – | – | OCC#Cc1ccc(-c2ccc(O)c(C34CC5CC(CC(C5)C3)C4)c2)cc1 [Compound 2, 3-(adamantan-1-yl)-4′-(3-hydroxyprop-1-yn-1-yl)-[1,1′-biphenyl]-4-ol] | 4 (≈ 11.2 µM) | 2 to 4 (≈ 5.58 to 11.2 µM) |
| – | – | 2 (≈ 5.15 µM) | 0.5 to 1 (≈ 1.29 to 2.57 µM) | 200 | C/C(=C\c1ccc(-c2ccc(O)c(C34CC5CC(CC(C5)C3)C4)c2)cc1)C(=O)O [Compound 3, E-2-Methyl-3-[3′-(adamantan-1-yl)-4′-hydroxybiphenyl-4-yl]acrylic Acid] | 4 to 8 (≈ 10.3 to 20.6 µM) | 8 (≈ 20.6 µM) |
| – | – | 2 (≈ 5.01 µM) | 0.5 to 1 (≈ 1.25 to 2.5 µM) | – | N#C/C(=C\c1ccc(-c2ccc(O)c(C34CC5CC(CC(C5)C3)C4)c2)cc1)C(=O)O [Compound 4] | 4 (≈ 10 µM) | 4 (≈ 10 µM) |
| 2 to 4 (≈ 5.1 to 10.2 µM) | 4 (≈ 10.2 µM) | – | – | 202 | O=C(O)/C(F)=C\c1ccc(-c2ccc(O)c(C34CC5CC(CC(C5)C3)C4)c2)cc1 [Compound 5, E-2-Fluoro-3-[3′-(adamantan-1-yl)-4′-hydroxybiphenyl-4-yl]-acrylic Acid] | 8 to 16 (≈ 20.4 to 40.8 µM) | 16 (≈ 40.8 µM) |
| – | – | 64 (≈ 216 µM) | – | 218 | CC(C)(C)c1cc(-c2ccc(/C=C/C(=O)O)cc2)ccc1O [Compound 6, E-3-(3′-tert-Butyl-4′-hydroxybiphenyl-4-yl)acrylic Acid] | – | – |
| – | – | 16 (≈ 41.4 µM) | – | – | COc1ccc(-c2ccc(C#CC(=O)O)cc2)cc1C12CC3CC(CC(C3)C1)C2 [Compound 7, 4-(3-(1-adamantyl)-4-methoxyphenyl)propiolic acid] | – | – |
| – | – | 128 (≈ 286 µM) | – | – | O=C(O)/C=C/c1ccc(-c2ccc(OCC(=O)NO)c(C34CC5CC(CC(C5)C3)C4)c2)cc1 [Compound 9] | – | – |
| – | – | 32 (≈ 69.3 µM) | – | – | CC(Oc1ccc(-c2ccc(/C=C/C(=O)O)cc2)cc1C12CC3CC(CC(C3)C1)C2)C(=O)NO (stereo not drawn) [Compound 10] | – | – |

From patent US20220281835A1, “PHENOL DERIVATIVES FOR USE AS ANTIMICROBIAL, ANTIBACTERIAL, BACTERICIDE” (SPECIAL PRODUCT'S LINE S.P.A., priority 2019, published 2022)
